The values below are quoted from earlier work in patent US7985768B2, “Compounds as cannabinoid receptor ligands” (priority 2006, dated 2011).

One data set has as its system animal models of pain. To be noted: models of acute thermal, persistent, inflammatory and neuropathic pain.
For data set [1] the following is noted: at fully efficacious doses.
The next data set concerns rodent models of pain. To be noted: neuropathic, incisional, chronic and acute inflammatory pain.
In a further data set the test system is rat. The following applies: rat formalin model of persistent pain.
A further data set deals with microglial activation. The following applies: in vitro.
In data set [2] the test system is CB2 receptor knockout mice.
Data set [3] deals with CB1 receptor knockout mice.
For data set [4], the system named is apolipoprotein E knockout mice.
For the next data set, the system named is mice. To be noted: model for post-menopausal osteoporosis.

As to `CN1CCCCC1Cn1cc(C(=O)c2cc([N+](=O)[O-])ccc2I)c2ccccc21` (stereo not shown) [AM-1241], the analgesic efficacy entry with animal models of pain is reported as “robust analgesic efficacy”. The “CB1 receptor-mediated CNS side effects” value in data set [1] is “devoid of typical CB1 receptor-mediated CNS side effects”.

Take `COc1ccc2c(c1)c(CCN1CCOCC1)c(C)n2C(=O)c1cccc(Cl)c1Cl` [GW405833]: the “efficacy in pain models” value in the data set on rodent models of pain is recorded as “efficacious”. Also, the “CB1 receptor-mediated CNS side effects” value in data set [1] was “devoid of typical CB1 receptor-mediated CNS side effects”.

For the compound `CCCCCCC(C)(C)c1cc(OC)c([C@@H]2C=C(CO)[C@@H]3C[C@H]2C3(C)C)c(OC)c1` [HU-308], the antinociceptive response entry in the data set on rat was “elicits an antinociceptive response”.

Turning to `CCCC(C)(C)c1ccc2c(c1)OC(C)(C)[C@@H]1CC=C(C)C[C@@H]21` [JWH-133], the “effect on β-amyloid-induced microglial activation and neurotoxicity” value with microglial activation is reported as “abrogated”.

With (−)-Δ^9-Tetrahydrocannabinol [Δ^9-THC], the immunosuppressive effects entry in data set [2] was “absent”. In addition, the analgesic efficacy entry in [3] is on record as “retains some analgesic efficacy”. In data set [4] (low doses), the “effect on progression of atherosclerotic lesions” value is on record as “slowed the progression of atherosclerotic lesions”.

In the case of SR144528, the “effect on osteoclast activity” value in the data set with osteoclast is listed as “inhibit osteoclast activity”. The “effect on the actions of THC on atherosclerotic lesions” value in data set [4] (antagonist against THC) is reported as “inhibited”. For the same compound, the “effect on ovariectomy-induced bone loss” value in the data set with mice is given as “reverse ovariectomy-induced bone loss”. Further, in the data set on microglial activation (antagonist against JWH-133), the “effect on the actions of JWH-133” value is given as “blocked”.
